From ChEMBL document CHEMBL5154804, “Species-Selective Targeting of Fungal Hsp90: Design, Synthesis, and Evaluation of Novel 4,5-Diarylisoxazole Derivatives for the Combination Treatment of Azole-Resistant Candidiasis” (J Med Chem, 2022)

Columns and labels:
[1] = tested on: Candida albicans; assay: Synergistic antifungal activity against fluconazole-resistant Candida albicans 311 assessed as inhibition of fungal growth in presence of fluconazole by checker board microdilution assay; type: functional
[2] = tested on: Candida albicans; assay: Synergistic antifungal activity against fluconazole-resistant Candida albicans 100 assessed as inhibition of fungal growth in presence of fluconazole by checker board microdilution assay; type: functional
[3] = target: Heat shock protein HSP90 (Homo sapiens, UniProt P07900+P08238); assay: Binding affinity to human Hsp90 expressed in Escherichia coli by SPR assay
[4] = Binding affinity to recombinant Candida albicans Hsp90 NBD expressed in Escherichia coli by SPR assay
[5] = tested on: Candida albicans; assay: Synergistic antifungal activity against fluconazole-resistant Candida albicans 632 assessed as inhibition of fungal growth in presence of fluconazole by checker board microdilution assay; type: functional
[6] = tested on: Candida albicans; assay: Synergistic antifungal activity against fluconazole-resistant Candida albicans 901 assessed as inhibition of fungal growth in presence of fluconazole by checker board microdilution assay; type: functional
[7] = tested on: Candida albicans; assay: Synergistic antifungal activity against fluconazole-resistant Candida albicans 103 assessed as inhibition of fungal growth in presence of fluconazole by checker board microdilution assay; type: functional
[8] = tested on: Candida albicans; assay: Synergistic antifungal activity against fluconazole-resistant Candida albicans 904 assessed as inhibition of fungal growth in presence of fluconazole by checker board microdilution assay; type: functional
[9] = tested on: Candida albicans; assay: Potentiation of fluconazole-induced antifungal activity against fluconazole-resistant Candida albicans 904 assessed as fluconazole MIC by checker board microdilution assay; type: functional
[10] = tested on: Candida albicans; assay: Synergetic antifungal activity against fluconazole-resistant Candida albicans 100 assessed as fractional inhibitory concentration index in presence of fluconazole by checker board microdilution assay; type: functional
[11] = tested on: Candida albicans; assay: Antifungal activity against fluconazole-resistant Candida albicans 901 assessed as inhibition of fungal growth by checker board microdilution assay; type: functional
[12] = Metabolic stability in human liver microsomes assessed as microsomal intrinsic clearance in presence of NADPH cofactor under shaking condition for 10 mins measured after 5 to 60 mins by LC-MS/MS analysis; type: ADME, Microsome; details: time 15-70 min
[13] = Metabolic stability in human liver microsomes assessed as intrinsic clearance in presence of NADPH cofactor under shaking condition for 10 mins measured after 5 to 60 mins by LC-MS/MS analysis; type: ADME, Microsome; details: time 15-70 min
[14] = target: CYP2D6 (Homo sapiens, UniProt P10635); assay: Inhibition of CYPD6 in human liver microsome at 10 uM using dextromethorphan as substrate incubated for 10 mins in presence of NADPH cofactor by LC-MS/MS analysis; type: ADME; details: liver microsomes, probe dextromethorphan
[15] = tested on: Candida albicans; assay: Synergetic antifungal activity against fluconazole-resistant Candida albicans 632 assessed as fractional inhibitory concentration index in presence of fluconazole by checker board microdilution assay; type: functional
[16] = tested on: Candida albicans; assay: Potentiation of fluconazole-induced antifungal activity against fluconazole-resistant Candida albicans 632 assessed as fluconazole MIC by checker board microdilution assay; type: functional
[17] = target: T1, CYP1A2 (Homo sapiens, UniProt P05177); assay: Inhibition of CYP1A2 in human liver microsome at 10 uM using phenacetin as substrate incubated for 10 mins in presence of NADPH cofactor by LC-MS/MS analysis; type: ADME; details: liver microsomes, probe phenacetin
T1 sequence (P05177 whole entry): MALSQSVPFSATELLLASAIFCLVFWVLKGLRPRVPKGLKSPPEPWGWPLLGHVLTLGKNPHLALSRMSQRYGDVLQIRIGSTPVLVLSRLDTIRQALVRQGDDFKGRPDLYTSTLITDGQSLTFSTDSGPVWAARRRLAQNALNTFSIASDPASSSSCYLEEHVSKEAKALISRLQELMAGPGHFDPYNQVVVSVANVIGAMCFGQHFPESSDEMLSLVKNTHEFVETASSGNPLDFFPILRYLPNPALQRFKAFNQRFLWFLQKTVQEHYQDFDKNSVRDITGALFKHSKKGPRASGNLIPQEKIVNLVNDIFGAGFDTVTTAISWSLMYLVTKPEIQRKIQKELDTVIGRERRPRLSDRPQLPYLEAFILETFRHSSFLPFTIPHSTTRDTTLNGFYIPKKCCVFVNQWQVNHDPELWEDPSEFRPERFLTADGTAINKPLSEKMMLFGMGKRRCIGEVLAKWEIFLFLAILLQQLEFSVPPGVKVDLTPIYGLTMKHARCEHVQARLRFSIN

[18] = Metabolic stability in human liver microsomes assessed as compound remaining in presence of NADPH cofactor under shaking condition for 10 mins measured after 60 mins by LC-MS/MS analysis; type: ADME, Microsome; details: time 70 min, read-out: Stability
[19] = tested on: Candida albicans; assay: Potentiation of fluconazole-induced antifungal activity against fluconazole-resistant Candida albicans 901 assessed as fluconazole MIC by checker board microdilution assay; type: functional
[20] = tested on: Candida albicans; assay: Synergetic antifungal activity against fluconazole-resistant Candida albicans 311 assessed as fractional inhibitory concentration index in presence of fluconazole by checker board microdilution assay; type: functional
[21] = target: CYP3A4 (Homo sapiens, UniProt P08684); assay: Inhibition of CYP3A4 in human liver microsome at 10 uM using midazolam as substrate incubated for 10 mins in presence of NADPH cofactor by LC-MS/MS analysis; type: ADME; details: liver microsomes, probe midazolam
[22] = Cytotoxicity against human BEAS-2B cell assessed as inhibition of cell growth after 24 hrs by MTT assay; type: toxicity, cell-based; details: BEAS-2B cells
[23] = Stability in human plasma assessed as half life at 120 mins by LC-MS/MS analysis; type: ADME, cell-free
[24] = tested on: Candida albicans; assay: Antifungal activity against fluconazole-resistant Candida albicans 632 assessed as inhibition of fungal growth by checker board microdilution assay; type: functional
[25] = tested on: Candida albicans; assay: Antifungal activity against fluconazole-resistant Candida albicans 311 assessed as inhibition of fungal growth by checker board microdilution assay; type: functional
[26] = tested on: MCF7; assay: Cytotoxicity against human MCF7 cell assessed as inhibition of cell growth after 24 hrs by MTT assay; type: functional, cell-based; details: MCF7, 24 h
[27] = target: CYP2C9 (Homo sapiens, UniProt P11712); assay: Inhibition of CYP2C9 in human liver microsome at 10 uM using diclofenac as substrate incubated for 10 mins in presence of NADPH cofactor by LC-MS/MS analysis; type: ADME; details: liver microsomes, probe diclofenac
[28] = Metabolic stability in human liver microsomes assessed as half life in presence of NADPH cofactor under shaking condition for 10 mins measured after 5 to 60 mins by LC-MS/MS analysis; type: ADME, Microsome; details: time 15-70 min
[29] = tested on: HepG2; assay: Cytotoxicity against human HepG2 cell assessed as inhibition of cell growth after 24 hrs by MTT assay; type: functional, cell-based; details: HepG2, 24 h
[30] = tested on: Candida albicans; assay: Synergetic antifungal activity against fluconazole-resistant Candida albicans 904 assessed as fractional inhibitory concentration index in presence of fluconazole by checker board microdilution assay; type: functional
[31] = tested on: Candida albicans; assay: Potentiation of fluconazole-induced antifungal activity against fluconazole-resistant Candida albicans 103 assessed as fluconazole MIC by checker board microdilution assay; type: functional
[32] = target: CYP2C19 (Homo sapiens, UniProt P33261); assay: Inhibition of CYP2C19 in human liver microsome at 10 uM using S-mephenytoin as substrate incubated for 10 mins in presence of NADPH cofactor by LC-MS/MS analysis; type: ADME; details: liver microsomes, probe S-mephenytoin
[33] = tested on: Candida albicans; assay: Synergetic antifungal activity against fluconazole-resistant Candida albicans 901 assessed as fractional inhibitory concentration index in presence of fluconazole by checker board microdilution assay; type: functional
[34] = tested on: Candida albicans; assay: Potentiation of fluconazole-induced antifungal activity against fluconazole-resistant Candida albicans 311 assessed as fluconazole MIC by checker board microdilution assay; type: functional
[35] = tested on: A549; assay: Cytotoxicity against human A549 cell assessed as inhibition of cell growth after 24 hrs by MTT assay; type: functional, cell-based; details: A549, 24 h
[36] = tested on: Candida albicans; assay: Antifungal activity against fluconazole-resistant Candida albicans 100 assessed as inhibition of fungal growth by checker board microdilution assay; type: functional
[37] = tested on: RAW264.7; assay: Cytotoxicity against mouse RAW264.7 cell assessed as inhibition of cell growth after 24 hrs by MTT assay; type: functional, cell-based; details: RAW264.7, 24 h
[38] = Stability in human plasma assessed as compound remaining at 120 mins by LC-MS/MS analysis; type: ADME, cell-free; details: read-out: Stability
[39] = tested on: Candida albicans; assay: Antifungal activity against fluconazole-resistant Candida albicans 103 assessed as inhibition of fungal growth by checker board microdilution assay; type: functional
[40] = Cytotoxicity against mouse NIH3T3 cell assessed as inhibition of cell growth after 24 hrs by MTT assay; type: toxicity, cell-based; details: NIH3T3 cells
[41] = tested on: Candida albicans; assay: Synergetic antifungal activity against fluconazole-resistant Candida albicans 103 assessed as fractional inhibitory concentration index in presence of fluconazole by checker board microdilution assay; type: functional
[42] = tested on: Candida albicans; assay: Potentiation of fluconazole-induced antifungal activity against fluconazole-resistant Candida albicans 100 assessed as fluconazole MIC by checker board microdilution assay; type: functional
[43] = Cytotoxicity against mouse BV-2 cell assessed as inhibition of cell growth after 24 hrs by MTT assay; type: toxicity, cell-based; details: BV-2 cells
[44] = tested on: Candida albicans; assay: Antifungal activity against fluconazole-resistant Candida albicans 904 assessed as inhibition of fungal growth by checker board microdilution assay; type: functional
[45] = Cytotoxicity against human THLE-2 cell assessed as inhibition of cell growth after 24 hrs by MTT assay; type: toxicity, cell-based; details: THLE-2 cells

CYP2C9, sequence (P11712 whole entry): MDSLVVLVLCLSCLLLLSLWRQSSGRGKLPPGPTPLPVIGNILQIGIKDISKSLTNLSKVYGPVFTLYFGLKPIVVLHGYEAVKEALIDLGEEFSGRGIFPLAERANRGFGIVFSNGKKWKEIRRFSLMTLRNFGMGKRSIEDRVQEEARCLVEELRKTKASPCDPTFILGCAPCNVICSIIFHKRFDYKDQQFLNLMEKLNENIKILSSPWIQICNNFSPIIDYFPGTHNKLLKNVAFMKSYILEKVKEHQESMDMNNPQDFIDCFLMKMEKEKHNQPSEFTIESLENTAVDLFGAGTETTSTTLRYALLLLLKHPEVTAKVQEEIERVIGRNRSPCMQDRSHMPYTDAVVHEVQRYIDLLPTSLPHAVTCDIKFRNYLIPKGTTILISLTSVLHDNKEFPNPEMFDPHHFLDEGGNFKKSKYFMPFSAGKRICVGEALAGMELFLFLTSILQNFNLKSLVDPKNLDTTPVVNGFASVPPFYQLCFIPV
CYP3A4, sequence (P08684 whole entry): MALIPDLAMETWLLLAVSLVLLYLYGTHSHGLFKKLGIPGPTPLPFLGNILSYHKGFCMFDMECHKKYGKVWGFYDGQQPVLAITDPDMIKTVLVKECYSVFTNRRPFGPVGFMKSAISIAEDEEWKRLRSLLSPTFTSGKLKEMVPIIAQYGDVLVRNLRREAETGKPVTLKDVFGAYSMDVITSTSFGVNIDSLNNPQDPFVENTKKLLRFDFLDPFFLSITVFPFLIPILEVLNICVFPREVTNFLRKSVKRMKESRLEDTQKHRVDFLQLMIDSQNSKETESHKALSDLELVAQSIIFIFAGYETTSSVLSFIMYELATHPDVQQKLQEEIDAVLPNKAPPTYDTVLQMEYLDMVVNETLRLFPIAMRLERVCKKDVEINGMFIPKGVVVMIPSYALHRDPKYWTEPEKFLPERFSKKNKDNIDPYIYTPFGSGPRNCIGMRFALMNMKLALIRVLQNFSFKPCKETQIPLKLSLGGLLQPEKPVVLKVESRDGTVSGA
CYP2C19, sequence (P33261 whole entry): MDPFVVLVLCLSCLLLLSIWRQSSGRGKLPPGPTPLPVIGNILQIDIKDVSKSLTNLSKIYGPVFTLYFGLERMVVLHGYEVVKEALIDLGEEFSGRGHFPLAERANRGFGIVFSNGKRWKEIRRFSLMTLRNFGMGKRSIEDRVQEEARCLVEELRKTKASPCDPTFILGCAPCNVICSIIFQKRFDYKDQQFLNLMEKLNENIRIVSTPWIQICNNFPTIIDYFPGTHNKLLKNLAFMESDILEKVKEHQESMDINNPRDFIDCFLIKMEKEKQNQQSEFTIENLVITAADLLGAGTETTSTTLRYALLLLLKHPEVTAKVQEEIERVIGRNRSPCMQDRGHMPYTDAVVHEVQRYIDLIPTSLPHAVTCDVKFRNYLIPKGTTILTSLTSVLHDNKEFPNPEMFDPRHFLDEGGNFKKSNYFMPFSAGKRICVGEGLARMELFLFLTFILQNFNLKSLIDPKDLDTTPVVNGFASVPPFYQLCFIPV
CYP2D6, sequence (P10635 whole entry): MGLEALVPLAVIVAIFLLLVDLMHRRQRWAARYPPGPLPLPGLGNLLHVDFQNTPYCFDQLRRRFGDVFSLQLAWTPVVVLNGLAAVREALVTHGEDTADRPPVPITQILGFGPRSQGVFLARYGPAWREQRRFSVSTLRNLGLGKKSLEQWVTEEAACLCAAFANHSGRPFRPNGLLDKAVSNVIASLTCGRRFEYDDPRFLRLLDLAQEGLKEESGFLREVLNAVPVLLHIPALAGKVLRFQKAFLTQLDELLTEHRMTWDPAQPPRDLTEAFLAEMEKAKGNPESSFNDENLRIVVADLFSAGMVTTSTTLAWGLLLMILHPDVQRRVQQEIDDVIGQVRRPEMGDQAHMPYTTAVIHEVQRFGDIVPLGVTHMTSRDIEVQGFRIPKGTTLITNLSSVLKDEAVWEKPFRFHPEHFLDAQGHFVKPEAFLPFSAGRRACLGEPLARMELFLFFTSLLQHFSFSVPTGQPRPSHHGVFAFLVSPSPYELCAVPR

With CCNC(=O)c1noc(-c2cc(-c3ccccc3C)c(O)cc2O)c1-c1ccc(CN2CCOCC2)cc1 the MIC80 [1] was > 64 µg/mL, the MIC80 [2] was > 64 µg/mL and the Kd [3] was > 25 µM. For the same compound, the Kd [4] was > 25 µM, the MIC80 [5] was > 64 µg/mL and the MIC80 [6] was > 64 µg/mL. The MIC80 [7] was > 64 µg/mL and the MIC80 [8] was > 64 µg/mL.

For CCNC(=O)c1noc(-c2cc(-c3ccc(C)cc3)c(O)cc2O)c1-c1ccc(CN2CCCCC2)cc1, the MIC80 [9] was 2 µg/mL, the “fractional inhibitory concentration index (FICI)” value [10] was 0.02 and the MIC80 [11] was > 64 µg/mL. The CLint [12] was 32 µL/min/mg, the CLint [13] was 28.8 mL/min/kg and the inhibition at 10 min, 10 µM [14] was 76.6%. The MIC80 [1] was 1 µg/mL, the “fractional inhibitory concentration index (FICI)” value [15] was 0.039 and the MIC80 [16] was 2 µg/mL. It also gave an inhibition at 10 min, 10 µM [17] of 12%, a remaining at 1.167 h [18] of 37.9% and an MIC80 [2] of 0.25 µg/mL. The Kd [3] was > 25 µM, the MIC80 [19] was 1 µg/mL and the Kd [4] was 0.139 µM. For the same compound, the “fractional inhibitory concentration index (FICI)” value [20] was 0.047, the inhibition at 10 min, 10 µM [21] was 39.8% and the MIC80 [5] was 0.5 µg/mL. For the same compound, the IC50 at 24 h [22] was 10 µM, the half-life [23] was > 288 min and the MIC80 [24] was > 64 µg/mL. For the same compound, the MIC80 [25] was > 64 µg/mL, the IC50 [26] was 5.49 µM and the inhibition at 10 min, 10 µM [27] was 39.2%. It also gave a half-life [28] of 43.3 min, an MIC80 [6] of 0.25 µg/mL and an IC50 [29] of 4.71 µM. The “fractional inhibitory concentration index (FICI)” value [30] was 0.035, the MIC80 [7] was 0.5 µg/mL and the MIC80 [31] was 2 µg/mL. For the same compound, the inhibition at 10 min, 10 µM [32] was 25.4%, the “fractional inhibitory concentration index (FICI)” value [33] was 0.02 and the MIC80 [8] was 0.25 µg/mL. The MIC80 [34] was 2 µg/mL, the IC50 [35] was 13.8 µM and the MIC80 [36] was > 64 µg/mL. For the same compound, the IC50 [37] was 3.87 µM, the remaining at 2 h [38] was 90.6% and the MIC80 [39] was > 64 µg/mL. For the same compound, the IC50 at 24 h [40] was 0.73 µM, the “fractional inhibitory concentration index (FICI)” value [41] was 0.039 and the MIC80 [42] was 1 µg/mL. For the same compound, the IC50 at 24 h [43] was 4.06 µM, the MIC80 [44] was > 64 µg/mL and the IC50 at 24 h [45] was 5.72 µM.
